Read-outs that look alike come from different tables or passages of the source.
Legend:
MAGI [1] = experiment: Cytotoxicity in MAGI HIV-1IIIB assay; assay type: cell-based
Experimental: (§1) HIV-1 and MAGI Tropism assays can be used to establish activity/cytotoxicity and synergy studies and ADME profiles of compounds are evaluated using in vitro assays such as CYP2D6/3A4 assays and metabolic stability in human and mouse liver microsomes (See Tables 2 and 3).

HIV-1BaL = experiment: HIV MAGI assay, HIV-1BaL; assay type: cell-based; conditions: for IC50 / IC90: Table 3
Experimental: as §1

HIV-1IIIB = experiment: HIV MAGI assay, HIV-1IIIB; assay type: cell-based; conditions: for IC50 / IC90: Table 3
Experimental: as §1

MAGI [2] = experiment: Cytotoxicity in MAGI HIV-1BaL assay; assay type: cell-based
Experimental: as §1

CYP3A4 = CYP3A4 (Homo sapiens (Human), UniProt P08684); experiment: Recombinant CYP inhibition assay (fluorometric), CYP3A4; assay type: in vitro ADME
Sequence of CYP3A4 (P08684 whole entry): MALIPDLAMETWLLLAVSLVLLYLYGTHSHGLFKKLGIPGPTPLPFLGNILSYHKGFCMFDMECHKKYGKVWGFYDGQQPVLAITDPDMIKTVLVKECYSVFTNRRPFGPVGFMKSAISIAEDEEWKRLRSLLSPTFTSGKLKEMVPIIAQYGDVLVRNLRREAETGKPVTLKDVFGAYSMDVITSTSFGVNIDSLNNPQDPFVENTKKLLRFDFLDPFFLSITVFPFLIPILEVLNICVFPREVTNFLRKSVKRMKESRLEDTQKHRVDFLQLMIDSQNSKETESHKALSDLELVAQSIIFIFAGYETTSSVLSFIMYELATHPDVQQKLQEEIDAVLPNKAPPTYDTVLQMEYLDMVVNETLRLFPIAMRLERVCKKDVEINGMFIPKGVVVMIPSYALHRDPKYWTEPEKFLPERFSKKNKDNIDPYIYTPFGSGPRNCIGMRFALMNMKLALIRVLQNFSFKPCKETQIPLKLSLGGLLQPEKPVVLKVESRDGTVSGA
Text: (§2) Recombinant CYP Inhibition Assay: In a drug discovery program, a rapid screening for cyctochrome P450 (CYP450) inhibitors is a part of the existing standard for avoiding the development of drugs likely to give clinical pharmacokinetic drug-drug interactions and associated toxicities. A microtiter plate-based, direct fluorometric assay for the activities of the principal human drug-metabolizing enzymes, CYP2D6 and CYP3A4 can be used and these assays are rapid and compatible with existing high-throughput assay instrumentation.
(§3) Fluorometric Enzyme Inhibition Assays: Test compounds were dissolved in 100% organic solvent (CH3CN or DMSO) to make 30 mM stock solutions. […] A 100 mM potassium phosphate buffer was prepared and adjusted to pH 7.4. The 30 mM stock solution of test and control compounds (1 mM) were further diluted in phosphate buffer (100 mM, pH 7.4) to ensure the final organic solvent content was <0.2% in the reaction. In a separate falcon tube, a 2× enzyme/substrate (E/S) solution was prepared in phosphate buffer. The final concentration of CYP2D6 (Corning) and AMMC was 10 nM and 4 μM, and CYP3A4 (Corning) and BFC was 20 nM and 40 μM, respectively. In a separate falcon tube, a 2× NADPH regenerating system (NRS) was prepared in phosphate buffer. The final concentration for each component in the assay was as follows: • CYP2D6 assay=0.008 mM NADPH, 3.3 mM glucose 6-phosphate, 0.4 U of glucose-6-phosphate dehydrogenase/mL • CYP3A4 assay=2.45 mM NADPH, 24.7 mM glucose 6-phosphate, 1.25 U of glucose-6-phosphate dehydrogenase/mL
(§4) Both enzymatic assays were conducted in a 96-well microtiter plate (Black, Corning Costar) with a final volume of 100 μL. Preparation of the plate began with the addition of 74 μL of the E/S in the first well, and 50 μL to all subsequent wells (from 2-11). The test compounds (1 μL) were dissolved in the first well to give the first row a final volume of 75 μL. A 1:3 serial dilution of the test compound was conducted by removing 25 μL from the first well and diluting it with the second and so forth until the tenth row. Final concentrations yielded a range from 300 μM-0.01 μM. Well 11 contained no enzyme, and well 12 contained no inhibitor. Both were used as controls for background fluorescence. The plate was incubated for 10 min at 37° C. for CYP2D6, and 30 mins for CYP3A4. After incubation, the reaction was initiated by the addition of 50 μL of the 2× NRS to each well.
(§5) Immediately (within 1 min) the fluorescence was measured using a microplate reader (KC4, BioTek). CYP2D6 was monitored at Ex/Em=410/460 nm, and CYP3A4 monitored at Ex/Em=410/538 nm in kinetic mode that scanned every 5 min for 60 mins. Data was exported and corrected for background noise by subtracting the blank from the mean value of all other columns. […]

CYP2D6 = CYP2D6 (Homo sapiens (Human), UniProt P10635); experiment: Recombinant CYP inhibition assay (fluorometric), CYP2D6; assay type: in vitro ADME
Sequence of CYP2D6 (P10635 whole entry): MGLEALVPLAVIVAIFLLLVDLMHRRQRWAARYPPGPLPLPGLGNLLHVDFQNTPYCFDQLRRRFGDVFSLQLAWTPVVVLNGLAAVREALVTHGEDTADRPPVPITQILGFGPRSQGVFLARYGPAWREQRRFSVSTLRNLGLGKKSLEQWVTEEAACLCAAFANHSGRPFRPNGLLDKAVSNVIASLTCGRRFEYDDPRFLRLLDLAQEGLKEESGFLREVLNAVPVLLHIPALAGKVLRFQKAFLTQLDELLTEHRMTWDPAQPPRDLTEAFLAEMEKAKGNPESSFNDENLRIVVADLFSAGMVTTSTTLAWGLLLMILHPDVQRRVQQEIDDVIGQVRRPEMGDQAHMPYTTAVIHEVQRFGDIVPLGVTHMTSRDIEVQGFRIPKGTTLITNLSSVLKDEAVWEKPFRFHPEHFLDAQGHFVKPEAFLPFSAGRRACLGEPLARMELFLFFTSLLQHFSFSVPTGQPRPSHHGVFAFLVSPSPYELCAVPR
Text: as §2, §3, §4, §5

[3] = both, 3 μM, pH 7.4
Experimental: Human Liver Microsomes: Pooled mixed gender human liver microsomes at a concentration of 20 mg/mL were purchased from XenoTech (Kansas City, Kans.). The vials of microsomes were stored at −80° C. and thawed on ice before each experiment. The microsomes were diluted to 1 mg/mL with 100 mM potassium phosphate buffer (pH 7.4).
Experimental Conditions: Test compounds were weighed and dissolved in 100% acetonitrile to make 2 mM stock solutions. […] The 2 mM stock solution of test and control compounds were further diluted in sodium phosphate buffer (100 mM, pH 7.4) to 50 μM to ensure the acetonitrile content was <0.2%.
The liver microsome assay was prepared in a 1.5 mL Eppendorf tube (Fisher Scientific) with a final volume of 1100 μL. Each reaction contained sodium phosphate buffer, liver microsomes (1 mg/mL), and test compound resulting in a final concentration of 3 μM. Following a 5 min pre-incubation of drug and microsomes in a 37° C. shaking incubator, the reaction was initiated with NADPH (110 μL). Aliquots (100 μL) were removed in duplicate at 0, 5, 10, 15, and […] and quenched in cold acetonitrile (200 μL). The aliquots were centrifuged at 12,000 g for 5 min and the supernatant removed and placed in an LCMS vial. […] A no NADPH negative control with test and control compound was conducted in singlet (150 μL) at the longest time point. Controls were processed and analyzed like test compounds.
An Agilent Technologies LCMS system consisting of an Agilent 6120 quadrupole mass spectrometer equipped with an Agilent 1200 binary pump, degasser, and auto sampler (Santa Clara, Calif.). The analytical column used for analysis was an XDB-Eclipse Plus C18 column (4.6 mm×150 mm column; Agilent Technologies). The mobile phase for the HPLC was 50 mM ammonium formate buffer, pH 3.5 (A) and acetonitrile (B). The samples were analyzed using the following 8-minute method: A linear gradient from 10% B to 95% B over for 5 minutes, with a 3 min hold at 95%. An equilibration at 10% B for 5 min was conducted after each run. Sample injection volume was 10 μL and the flow rate was 1.0 mL/min. Single ion monitoring of the mass in positive mode was conducted the molecular weight for each compound. Each time point was assessed on the LCMS and the area, based on the extracted ion, was manually integrated.
Calculations: The depletion of the compound was monitored as a function of time, and the area under the curve was manually integrated. The relative percent remaining was calculated using: Relative % remaining=AreaTime/AreaTime=0*100. The relative percentages for the duplicate runs were averaged and the standard deviations were calculated. Metabolism data averaged duplicates.

[4] = Mouse liver microsomes assay; assay type: in vitro ADME; conditions: for Relative % remaining, mouse liver microsomes: 3 μM compound, 1 mg/mL microsomes
Experimental: Controls were processed and analyzed like test compounds. […] The relative percent remaining was calculated using: Relative % remaining=[…]=0*100. […] Metabolism data averaged duplicates.

[5] = Human immunodeficiency virus 1, MAGI

Row | IC50 (HIV-1BaL; [5]) [nM] | IC90 (HIV-1BaL; [5]) [µM] | IC50 (HIV-1IIIB; [5]) [µM] | IC90 (HIV-1IIIB; [5]) [µM] | Structure (SMILES) | MAGI HIV-1IIIB TC50 (MAGI [1]; Table 3) [µM] | MAGI HIV-1BaL TC90 (MAGI [2]; Table 3, head prints TC90) [µM] | other results
1 | 330 | 4.38 | 12.4 | 65.8 | NCCCCN(C[C@H]1CN(CC[C@H](NC(=O)C2CCC(F)(F)CC2)c2ccccc2)CCN1Cc1cncs1)[C@H]1CCCc2cccnc21 [Compound 66] | >100 | >100 | 
2 | 950 | 22.7 | 3.49 | 52.7 | NCCCCN(C[C@H]1CN(CC[C@H](NC(=O)C2CCC(F)(F)CC2)c2ccccc2)CCN1Cc1ccncc1)[C@H]1CCCc2cccnc21 [Compound 81, N—((S)-3-((R)-3-(((4-aminobutyl)((S)-5,6,7,8-tetrahydroquinolin-8-yl)amino)methyl)-4-(pyridin-4-ylmethyl)piperazin-1-yl)-1-phenylpropyl)-4,4-difluorocyclohexane-1-carboxamide] | >100 | >100 | 
3 | 1540 | 23 | 0.002 | 0.009 | NCCCCN(C[C@H]1CN(CC[C@H](NC(=O)C2CCC(F)(F)CC2)c2ccccc2)CCN1Cc1cnc[nH]1)[C@H]1CCCc2cccnc21 [Compound 77, N—((S)-3-((R)-4-((1H-imidazol-5-yl)methyl)-3-(((4-aminobutyl)((S)-5,6,7,8-tetrahydroquinolin-8-yl)amino)methyl)piperazin-1-yl)-1-phenylpropyl)-4,4-difluorocyclohexane-1-carboxamide] | >100 | >100 | 
4 | 2330 | 36.7 | 3.19 | 44.6 | NCCCCN(C[C@H]1CN(CC[C@H](NC(=O)C2CCC(F)(F)CC2)c2ccccc2)CCN1Cc1cnco1)[C@H]1CCCc2cccnc21 [Compound 67] | >100 | >100 | 
5 | 660 | 7.35 | 2.58 | 36.5 | Cn1cncc1CN1CCN(CC[C@H](NC(=O)C2CCC(F)(F)CC2)c2ccccc2)C[C@@H]1CN(CCCCN)[C@H]1CCCc2cccnc21 [Compound 79, N—((S)-3-((R)-3-(((4-aminobutyl)((S)-5,6,7,8-tetrahydroquinolin-8-yl)amino)methyl)-4-((1-methyl-1H-imidazol-5-yl)methyl)piperazin-1-yl)-1-phenylpropyl)-4,4-difluorocyclohexane-1-carboxamide] | >100 | >100 | 

Further lines, the compound ahead of its results:

Row | Structure (SMILES) | IC50 (HIV-1BaL; [5]) [nM] | IC90 (HIV-1BaL; [5]) [µM] | IC50 (HIV-1IIIB; [5]) [µM] | IC90 (HIV-1IIIB; [5]) [µM] | MAGI HIV-1IIIB TC50 (MAGI [1]; Table 3) [µM] | MAGI HIV-1BaL TC90 (MAGI [2]; Table 3, head prints TC90) [µM] | other results
6 | NCCCCN(CC1NC[C@@H]2CC[C@H]1N2CC[C@H](NC(=O)C1CCC(F)(F)CC1)c1ccccc1)[C@H]1CCCc2cccnc21 (single isomer, unassigned) [LRf isomer 95] |  |  |  |  |  |  | MAGI HIV-1IIIB TC50 (MAGI [1]; human): >10.0 µM; IC50 (HIV-1BaL): 9360 nM; IC90 (HIV-1BaL): > 100 µM; IC50 (HIV-1IIIB): > 10 µM; IC90 (HIV-1IIIB): > 10 µM; MAGI HIV-1BaL TC90 (MAGI [2]; human): >100 µM
7 | NCCCCN(CC1NC[C@@H]2CC[C@H]1N2CC[C@H](NC(=O)C1CCC(F)(F)CC1)c1ccccc1)[C@H]1CCCc2cccnc21 (single isomer, unassigned) [URf isomer 95] |  |  |  |  |  |  | MAGI HIV-1IIIB TC50 (MAGI [1]; human): >10.0 µM; IC50 (HIV-1BaL): 820 nM; IC90 (HIV-1BaL): 8.96 µM; IC50 (HIV-1IIIB): 0.17 µM; IC90 (HIV-1IIIB): 0.9 µM; MAGI HIV-1BaL TC90 (MAGI [2]; human): >100 µM
8 | NCCCCN(C[C@@H]1CN(CC[C@H](NC(=O)C2CCC(F)(F)CC2)c2ccccc2)CCN1)[C@H]1CCCc2cccnc21 [Compound 1] |  |  |  |  |  |  | EC50 (HIV-1BaL; Human immunodeficiency virus 1, MAGI, Table 1, read-out: HIV MAGI EC50 HIVBa-L): 2600 nM; IC50 (CYP3A4; Table 1): > 20 µM; IC50 (CYP2D6; Table 1): > 20 µM; EC50 (HIV-1IIIB; Human immunodeficiency virus 1, MAGI, Table 1, read-out: HIV MAGI EC50 HIVIIIB): 220 nM; Relative % remaining, human liver microsomes ([3]; 10 min): 58 ± 4.9%; Relative % remaining, human liver microsomes ([3]; 0.5 h): 25 ± 0.1%; HLM ([3]; human, microsomes, 10 min): 58% @ 10 min; Relative % remaining, mouse liver microsomes ([4]; 10 min): 116 ± 3.1%; Relative % remaining, mouse liver microsomes ([4]; 30 min): 93 ± 8.9%; MLM ([4]; @ 10 min, Table 1): 100% @ 10 min
9 | NCCCCN(Cc1nc2ccccc2[nH]1)[C@H]1CCCc2cccnc21 [AMD11070, reference compound] |  |  |  |  |  |  | Inhibition of P450 3A4 (CYP3A4; at 1 μM): 35%; inhibition at 60 min, 1 µM (CYP2D6; human, recombinant CYP2D6, pH 7.4, probe AMMC (4 μM), at 1 μM, read-out: Inhibition of P450 2D6): 100%
10 | NCCCCN(C[C@H]1CN(CC[C@H](NC(=O)C2CCC(F)(F)CC2)c2ccccc2)CCN1CC1COC1)[C@H]1CCCc2cccnc21 [Compound 75, N—((S)-3-((R)-3-(((4-aminobutyl)((S)-5,6,7,8-tetrahydroquinolin-8-yl)amino)methyl)-4-(oxetan-3-ylmethyl)piperazin-1-yl)-1-phenylpropyl)-4,4-difluorocyclohexane-1-carboxamide] | 2510 | 97.1 | 6.61 | 68.5 | >100 | >100 | 
11 | CN1CCN(CC[C@H](NC(=O)C2CCC(F)(F)CC2)c2ccccc2)C[C@@H]1CN(CCCCN)[C@H]1CCCc2cccnc21 [Compound 68] | 4160 | 66.8 | 10.2 | 70.2 | >100 | >100 | 

Reference: patent US11649235B2, “Pan-tropic entry inhibitors” (Emory University, priority 2018, dated 2023)
